Measured values as given in patent US20240197759A1, “IMMUNE STIMULATING NANOPARTICLE COMPOSITION” (DANMARKS TEKNISKE UNIVERSITET, priority 2021, published 2024).

Tested on: CT26 syngenic subcutaneous colon cancer model
Test: Antitumor activity of MBS8 micelles in combination with doxorubicin or doxil in the CT26 model
Format: in vivo, mice
Conditions: mono chemotherapy 4 mg/kg i.v. q4d x3
Experimental: Randomisation of mice and treatment started when tumors reached an average volume of 100 mm^3 (Day 0). […] All drugs were administered by intravenous bolus. Doxorubicin or doxil were given q4d, total of 3 injections. […] Growth of tumors was measured twice a week.

COc1cccc2c1C(=O)c1c(O)c3c(c(O)c1C2=O)C[C@@](O)(C(=O)CO)C[C@@H]3O[C@H]1C[C@H](N)[C@H](O)[C@H](C)O1 [doxorubicin] was tested, and the complete responders was “no complete responders”.
